# Like-named read-outs stand apart in the source and are kept apart here.
# How the values were obtained:
# Experiment in all cases: KiNativ assay
# Assay type in all cases: binding
# Conditions in all cases: H929 live cell
# RSK1 domain1 = RSK1 domain1 (Homo sapiens (Human), UniProt Q15418)
# Description: (§1) Biochemical IC50s of the compounds of the present disclosure against various kinases were measured in a KiNativ assay. Compounds were screened in duplicate at 10 μM in H929 live cell. IC50 was measured via Mass spectroscopy (MS).
# PIP4K2C = PIP4K2C (Homo sapiens (Human), UniProt Q8TBX8)
# Description: as §1
# CaMKK2 = CaMKK2 (Homo sapiens (Human), UniProt Q96RR4)
# Description: as §1
# STLK5 = STLK5 (Homo sapiens (Human), UniProt Q7RTN6)
# Description: as §1
# Wnk1, Wnk2, Wnk3 = tested on: Wnk1, Wnk2, Wnk3
# Description: as §1
# FYN, SRC, YES = tested on: FYN, SRC, YES
# Description: as §1
# ZAK = ZAK (Homo sapiens (Human), UniProt Q9NYL2)
# Description: as §1
# MARK4 = MARK4 (Homo sapiens (Human), UniProt Q96L34)
# Description: as §1
# NEK6, NEK7 = tested on: NEK6, NEK7
# Description: as §1
# NEK8 = NEK8 (Homo sapiens (Human), UniProt Q86SG6)
# Description: as §1
# PKCz = PKCz (Homo sapiens (Human), UniProt Q05513)
# Description: as §1
# CaMK2g = CaMK2g (Homo sapiens (Human), UniProt Q13555)
# Description: as §1
# [1] = tested on: CaMK2a, CaMK2b, CaMK2d, CaMK2g
# Description: as §1
# IRAK1 = IRAK1 (Homo sapiens (Human), UniProt P51617)
# Description: as §1
# MAP2K5 = MAP2K5 (Homo sapiens (Human), UniProt Q13163)
# Description: as §1
# PKN1 = PKN1 (Homo sapiens (Human), UniProt Q16512)
# Description: as §1
# TLK2 = TLK2 (Homo sapiens (Human), UniProt Q86UE8)
# Description: as §1
# CHK1 = CHK1 (Homo sapiens (Human), UniProt O14757)
# Description: as §1
# PIK3CB = PIK3CB (Homo sapiens (Human), UniProt P42338)
# Description: as §1
# CDK5 = CDK5 (Homo sapiens (Human), UniProt Q00535)
# Description: as §1
# p70S6K = p70S6K (Homo sapiens (Human), UniProt P23443)
# Description: as §1
# PIK3CG = PIK3CG (Homo sapiens (Human), UniProt P48736)
# Description: as §1
# JAK3 domain2 = JAK3 domain2 (Homo sapiens (Human), UniProt P52333)
# Description: as §1
# SRPK2 = SRPK2 (Homo sapiens (Human), UniProt P78362)
# Description: as §1
# LATS1 = LATS1 (Homo sapiens (Human), UniProt O95835)
# Description: as §1
# PRPK = PRPK (Homo sapiens (Human), UniProt Q96S44)
# Description: as §1
# MST1 = MST1 (Homo sapiens (Human), UniProt Q13043)
# Description: as §1
# TAO2 = TAO2 (Homo sapiens (Human), UniProt Q9UL54)
# Description: as §1
# STLK3 = STLK3 (Homo sapiens (Human), UniProt Q9UEW8)
# Description: as §1
# ACK = ACK (Homo sapiens (Human), UniProt Q07912)
# Description: as §1
# BARK1 = BARK1 (Homo sapiens (Human), UniProt P25098)
# Description: as §1
# GSK3A = GSK3A (Homo sapiens (Human), UniProt P49840)
# Description: as §1
# KHS1 = KHS1 (Homo sapiens (Human), UniProt Q9Y4K4)
# Description: as §1
# [2] = range class, read-out: % inhibition
# Chain of MARK4 (Q96L34 whole entry): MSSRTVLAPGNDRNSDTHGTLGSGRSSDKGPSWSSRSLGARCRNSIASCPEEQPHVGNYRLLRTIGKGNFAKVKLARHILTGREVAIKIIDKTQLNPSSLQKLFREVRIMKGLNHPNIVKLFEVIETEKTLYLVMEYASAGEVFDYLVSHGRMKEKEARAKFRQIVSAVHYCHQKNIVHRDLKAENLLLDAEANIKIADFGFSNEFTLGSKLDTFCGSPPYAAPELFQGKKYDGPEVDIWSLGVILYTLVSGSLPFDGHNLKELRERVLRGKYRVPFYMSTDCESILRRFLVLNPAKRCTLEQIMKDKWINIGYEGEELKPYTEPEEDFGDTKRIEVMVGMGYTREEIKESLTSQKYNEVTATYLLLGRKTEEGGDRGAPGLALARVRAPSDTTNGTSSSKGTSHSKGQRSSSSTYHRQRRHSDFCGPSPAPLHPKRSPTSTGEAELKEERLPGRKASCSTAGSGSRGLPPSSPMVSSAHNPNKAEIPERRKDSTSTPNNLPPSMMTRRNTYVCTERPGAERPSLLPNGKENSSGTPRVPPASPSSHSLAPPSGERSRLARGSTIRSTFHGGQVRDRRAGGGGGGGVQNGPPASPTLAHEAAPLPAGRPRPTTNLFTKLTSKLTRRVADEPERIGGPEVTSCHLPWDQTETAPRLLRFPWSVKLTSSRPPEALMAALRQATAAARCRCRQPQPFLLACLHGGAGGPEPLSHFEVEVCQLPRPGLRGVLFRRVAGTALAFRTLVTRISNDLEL
# Chain of ACK (Q07912 whole entry): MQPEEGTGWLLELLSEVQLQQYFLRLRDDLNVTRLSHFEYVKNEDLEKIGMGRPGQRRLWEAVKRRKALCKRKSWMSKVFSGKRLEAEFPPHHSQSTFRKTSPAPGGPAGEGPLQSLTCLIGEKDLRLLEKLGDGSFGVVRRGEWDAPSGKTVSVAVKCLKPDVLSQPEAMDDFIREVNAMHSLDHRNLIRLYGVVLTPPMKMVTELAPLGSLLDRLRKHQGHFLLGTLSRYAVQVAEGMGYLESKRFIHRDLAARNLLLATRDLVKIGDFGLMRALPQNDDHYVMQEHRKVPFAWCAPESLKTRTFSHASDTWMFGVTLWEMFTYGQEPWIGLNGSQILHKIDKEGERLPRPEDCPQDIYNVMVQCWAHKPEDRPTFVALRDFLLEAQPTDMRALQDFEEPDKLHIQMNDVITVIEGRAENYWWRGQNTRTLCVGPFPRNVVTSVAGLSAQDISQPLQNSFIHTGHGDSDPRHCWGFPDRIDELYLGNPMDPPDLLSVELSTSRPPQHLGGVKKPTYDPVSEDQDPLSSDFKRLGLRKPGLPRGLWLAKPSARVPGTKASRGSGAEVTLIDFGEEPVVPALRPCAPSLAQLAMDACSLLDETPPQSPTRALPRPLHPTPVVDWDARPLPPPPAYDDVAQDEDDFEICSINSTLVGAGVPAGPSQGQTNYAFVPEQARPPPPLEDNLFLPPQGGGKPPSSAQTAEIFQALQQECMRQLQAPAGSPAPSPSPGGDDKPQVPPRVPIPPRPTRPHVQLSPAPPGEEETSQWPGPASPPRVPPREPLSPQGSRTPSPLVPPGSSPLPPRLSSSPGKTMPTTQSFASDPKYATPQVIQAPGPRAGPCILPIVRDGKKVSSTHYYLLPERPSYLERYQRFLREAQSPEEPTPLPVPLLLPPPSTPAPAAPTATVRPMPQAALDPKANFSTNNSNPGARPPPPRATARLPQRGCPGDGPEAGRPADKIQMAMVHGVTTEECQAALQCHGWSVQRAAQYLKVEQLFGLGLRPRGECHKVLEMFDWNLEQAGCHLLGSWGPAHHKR
# Chain of MST1 (Q13043 whole entry): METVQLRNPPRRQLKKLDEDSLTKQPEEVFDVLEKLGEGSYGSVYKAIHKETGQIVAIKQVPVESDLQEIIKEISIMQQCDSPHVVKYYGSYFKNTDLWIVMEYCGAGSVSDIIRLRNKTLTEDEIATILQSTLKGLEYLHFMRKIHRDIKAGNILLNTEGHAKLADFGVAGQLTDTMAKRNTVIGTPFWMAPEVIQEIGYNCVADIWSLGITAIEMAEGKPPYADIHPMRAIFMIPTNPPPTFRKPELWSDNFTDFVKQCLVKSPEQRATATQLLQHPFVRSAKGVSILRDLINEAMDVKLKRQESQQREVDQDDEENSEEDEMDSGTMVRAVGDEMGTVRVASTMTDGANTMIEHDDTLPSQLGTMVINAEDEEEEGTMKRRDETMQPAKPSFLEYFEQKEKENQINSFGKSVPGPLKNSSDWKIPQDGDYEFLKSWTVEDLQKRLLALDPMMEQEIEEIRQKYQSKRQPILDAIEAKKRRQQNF
# Chain of CaMK2g (Q13555 whole entry): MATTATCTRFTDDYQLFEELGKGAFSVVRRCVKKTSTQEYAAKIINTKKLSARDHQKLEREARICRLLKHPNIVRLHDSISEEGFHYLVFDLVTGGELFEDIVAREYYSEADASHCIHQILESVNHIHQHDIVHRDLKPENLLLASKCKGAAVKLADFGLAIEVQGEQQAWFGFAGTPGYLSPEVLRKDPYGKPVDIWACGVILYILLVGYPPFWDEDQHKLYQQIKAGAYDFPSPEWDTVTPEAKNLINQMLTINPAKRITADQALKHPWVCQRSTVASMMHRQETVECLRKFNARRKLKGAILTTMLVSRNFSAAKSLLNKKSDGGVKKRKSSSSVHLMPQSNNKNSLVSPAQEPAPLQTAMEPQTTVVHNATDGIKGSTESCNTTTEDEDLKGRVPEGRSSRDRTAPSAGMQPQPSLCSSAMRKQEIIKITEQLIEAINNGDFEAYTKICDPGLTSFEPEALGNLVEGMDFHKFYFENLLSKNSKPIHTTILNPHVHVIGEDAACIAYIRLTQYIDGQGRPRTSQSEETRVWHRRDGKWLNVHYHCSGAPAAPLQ
# Chain of RSK1 domain1 (Q15418 whole entry, the tested form may be a part): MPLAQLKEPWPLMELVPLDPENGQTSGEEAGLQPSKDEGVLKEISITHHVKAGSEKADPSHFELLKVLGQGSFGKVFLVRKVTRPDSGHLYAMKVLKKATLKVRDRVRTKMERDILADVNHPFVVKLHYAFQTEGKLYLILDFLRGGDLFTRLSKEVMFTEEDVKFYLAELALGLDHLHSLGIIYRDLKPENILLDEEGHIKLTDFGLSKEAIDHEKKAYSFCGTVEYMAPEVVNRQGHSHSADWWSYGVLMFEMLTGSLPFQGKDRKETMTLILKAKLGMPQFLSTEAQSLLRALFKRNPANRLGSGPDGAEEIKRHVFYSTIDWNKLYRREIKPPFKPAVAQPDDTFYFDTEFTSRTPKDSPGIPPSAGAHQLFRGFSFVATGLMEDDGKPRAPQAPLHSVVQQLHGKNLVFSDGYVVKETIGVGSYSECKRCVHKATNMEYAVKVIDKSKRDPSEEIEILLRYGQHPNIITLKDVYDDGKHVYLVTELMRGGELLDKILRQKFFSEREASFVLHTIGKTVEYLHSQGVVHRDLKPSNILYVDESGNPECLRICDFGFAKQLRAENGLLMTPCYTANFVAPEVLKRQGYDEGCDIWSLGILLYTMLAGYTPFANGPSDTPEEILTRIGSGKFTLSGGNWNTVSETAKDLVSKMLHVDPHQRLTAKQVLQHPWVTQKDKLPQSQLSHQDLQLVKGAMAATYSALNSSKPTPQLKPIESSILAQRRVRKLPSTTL
# Chain of KHS1 (Q9Y4K4 whole entry): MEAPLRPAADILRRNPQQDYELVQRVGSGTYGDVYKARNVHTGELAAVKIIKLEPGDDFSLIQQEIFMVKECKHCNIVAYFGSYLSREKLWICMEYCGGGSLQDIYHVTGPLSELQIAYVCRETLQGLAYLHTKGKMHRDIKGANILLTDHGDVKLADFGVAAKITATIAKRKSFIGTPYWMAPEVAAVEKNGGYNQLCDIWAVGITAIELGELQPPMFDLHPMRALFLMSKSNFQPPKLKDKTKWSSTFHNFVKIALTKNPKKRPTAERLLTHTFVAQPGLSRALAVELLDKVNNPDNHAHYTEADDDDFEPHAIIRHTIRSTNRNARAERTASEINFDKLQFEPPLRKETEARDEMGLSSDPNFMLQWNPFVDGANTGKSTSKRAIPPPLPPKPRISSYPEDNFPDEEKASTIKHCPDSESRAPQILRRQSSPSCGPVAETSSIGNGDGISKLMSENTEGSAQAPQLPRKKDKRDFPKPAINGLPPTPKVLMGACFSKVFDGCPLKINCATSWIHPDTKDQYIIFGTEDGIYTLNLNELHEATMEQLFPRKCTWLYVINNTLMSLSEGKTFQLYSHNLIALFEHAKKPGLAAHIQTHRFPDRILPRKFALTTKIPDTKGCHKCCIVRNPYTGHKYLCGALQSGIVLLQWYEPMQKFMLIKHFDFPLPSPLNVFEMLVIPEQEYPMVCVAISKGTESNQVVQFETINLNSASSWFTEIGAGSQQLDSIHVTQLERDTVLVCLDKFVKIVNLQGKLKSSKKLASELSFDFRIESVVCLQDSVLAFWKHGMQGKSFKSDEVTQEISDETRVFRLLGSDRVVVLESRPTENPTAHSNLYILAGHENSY
# Chain of CDK5 (Q00535 whole entry): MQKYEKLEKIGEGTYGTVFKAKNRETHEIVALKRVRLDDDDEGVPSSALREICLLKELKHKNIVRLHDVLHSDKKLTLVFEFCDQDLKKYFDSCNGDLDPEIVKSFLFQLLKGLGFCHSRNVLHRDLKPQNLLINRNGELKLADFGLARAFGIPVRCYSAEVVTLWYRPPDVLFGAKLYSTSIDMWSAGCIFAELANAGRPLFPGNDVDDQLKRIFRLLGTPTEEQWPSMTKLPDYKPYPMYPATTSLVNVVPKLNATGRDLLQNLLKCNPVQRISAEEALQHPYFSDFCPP
# Chain of PRPK (Q96S44 whole entry): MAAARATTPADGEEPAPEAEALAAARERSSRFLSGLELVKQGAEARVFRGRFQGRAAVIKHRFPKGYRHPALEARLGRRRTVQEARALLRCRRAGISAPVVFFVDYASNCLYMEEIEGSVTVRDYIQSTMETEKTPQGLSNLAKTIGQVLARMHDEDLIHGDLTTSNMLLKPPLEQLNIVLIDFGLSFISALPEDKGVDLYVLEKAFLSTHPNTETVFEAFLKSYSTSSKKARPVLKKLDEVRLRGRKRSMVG
smiles,measurement,setting,value
"Nc1ncc(-c2cccc([N+](=O)[O-])c2F)cc1-c1ccc2c(c1)CCNC2=O [Compound I-9, 6-(2-amino-5-(2-fluoro-3-nitrophenyl)pyridin-3-yl)-3,4-dihydroisoquinolin-1(2H)-one]",inhibition at 10 µM,RSK1 domain1; read-out: % inhibition (range),0%
same,inhibition at 10 µM,RSK1 domain1; read-out: inhibition (10 μM),24%
same,inhibition at 10 µM,PIP4K2C; read-out: % inhibition (range),50 to 75%
same,inhibition at 10 µM,PIP4K2C; read-out: inhibition (10 μM),65.7%
same,inhibition at 10 µM,CaMKK2; read-out: % inhibition (range),50 to 75%
same,inhibition at 10 µM,CaMKK2; read-out: inhibition (10 μM),71.8%
same,inhibition at 10 µM,STLK5; read-out: % inhibition (range),0%
same,inhibition at 10 µM,STLK5; read-out: inhibition (10 μM),-14.9%
same,% inhibition (range),"Wnk1, Wnk2, Wnk3; 10 μM",>100%
same,inhibition (10 μM),"Wnk1, Wnk2, Wnk3",−105.5%
same,% inhibition (range),"FYN, SRC, YES; 10 μM",0.0%
same,inhibition (10 μM),"FYN, SRC, YES",28.3%
same,inhibition at 10 µM,ZAK; read-out: % inhibition (range),35 to 50%
same,inhibition at 10 µM,ZAK; read-out: inhibition (10 μM),42%
same,inhibition at 10 µM,MARK4; read-out: % inhibition (range),75 to 90%
same,inhibition at 10 µM,MARK4; read-out: inhibition (10 μM),> 75%
same,% inhibition (range),"NEK6, NEK7; 10 μM",0.0%
same,inhibition (10 μM),"NEK6, NEK7",−35.7%
same,inhibition at 10 µM,NEK8; read-out: % inhibition (range),0%
same,inhibition at 10 µM,NEK8; read-out: inhibition (10 μM),11.6%
same,inhibition at 10 µM,PKCz; read-out: % inhibition (range),0%
same,inhibition at 10 µM,PKCz; read-out: inhibition (10 μM),27%
same,inhibition at 10 µM,CaMK2g; read-out: % inhibition (range),0%
same,inhibition at 10 µM,CaMK2g; read-out: inhibition (10 μM),-23%
same,% inhibition (range),[1]; 10 μM,0.0%
same,inhibition (10 μM),[1],3.3%
same,inhibition at 10 µM,IRAK1; read-out: % inhibition (range),75 to 90%
same,inhibition at 10 µM,IRAK1; read-out: inhibition (10 μM),82.6%
same,inhibition at 10 µM,MAP2K5; read-out: % inhibition (range),75 to 90%
same,inhibition at 10 µM,MAP2K5; read-out: inhibition (10 μM),75.2%
same,inhibition at 10 µM,PKN1; read-out: % inhibition (range),50 to 75%
same,inhibition at 10 µM,PKN1; read-out: inhibition (10 μM),56.9%
same,inhibition at 10 µM,TLK2; read-out: % inhibition (range),0%
same,inhibition at 10 µM,TLK2; read-out: inhibition (10 μM),34%
same,inhibition at 10 µM,CHK1; read-out: % inhibition (range),0%
same,inhibition at 10 µM,CHK1; read-out: inhibition (10 μM),14.9%
same,inhibition at 10 µM,PIK3CB; read-out: % inhibition (range),0%
same,inhibition at 10 µM,PIK3CB; read-out: inhibition (10 μM),14.6%
same,inhibition at 10 µM,CDK5; read-out: % inhibition (range),75 to 90%
same,inhibition at 10 µM,CDK5; read-out: inhibition (10 μM),78.7%
same,inhibition at 10 µM,p70S6K; read-out: % inhibition (range),0%
same,inhibition at 10 µM,p70S6K; read-out: inhibition (10 μM),-71.5%
same,inhibition at 10 µM,PIK3CG; read-out: % inhibition (range),0%
same,inhibition at 10 µM,PIK3CG; read-out: inhibition (10 μM),16.3%
same,inhibition at 10 µM,JAK3 domain2; read-out: % inhibition (range),0%
same,inhibition at 10 µM,JAK3 domain2; read-out: inhibition (10 μM),2.6%
same,inhibition at 10 µM,SRPK2; read-out: % inhibition (range),0%
same,inhibition at 10 µM,SRPK2; read-out: inhibition (10 μM),18.9%
same,inhibition at 10 µM,LATS1; read-out: % inhibition (range),0%
same,inhibition at 10 µM,LATS1; read-out: inhibition (10 μM),33.1%
same,inhibition at 10 µM,PRPK; read-out: % inhibition (range),0%
same,inhibition at 10 µM,PRPK; read-out: inhibition (10 μM),-5%
same,inhibition at 10 µM,MST1; read-out: % inhibition (range),> 90%
same,inhibition at 10 µM,MST1; read-out: inhibition (10 μM),95.4%
same,inhibition at 10 µM,TAO2; read-out: % inhibition (range),35 to 50%
same,inhibition at 10 µM,TAO2; read-out: inhibition (10 μM),35.3%
same,inhibition at 10 µM,STLK3; read-out: % inhibition (range),0%
same,inhibition at 10 µM,STLK3; read-out: inhibition (10 μM),-22.9%
same,inhibition at 10 µM,ACK; read-out: % inhibition (range),0%
same,inhibition at 10 µM,ACK; read-out: inhibition (10 μM),-17.3%
same,inhibition at 10 µM,BARK1; read-out: % inhibition (range),0%
same,inhibition at 10 µM,BARK1; read-out: inhibition (10 μM),2.8%
same,inhibition at 10 µM,GSK3A; read-out: % inhibition (range),> 90%
same,inhibition at 10 µM,GSK3A; read-out: inhibition (10 μM),97.2%
same,inhibition at 10 µM,KHS1; read-out: % inhibition (range),75 to 90%
same,inhibition at 10 µM,KHS1; read-out: inhibition (10 μM),79.5%
"Nc1ncc(-c2ccc(NS(=O)(=O)C3CC3)cc2OC2CCCCC2)cc1-c1ccc2c(c1)CCNC2=O [Compound I-65, N-(4-(6-amino-5-(1-oxo-1,2,3,4-tetrahydroisoquinolin-6-yl)pyridin-3-yl)-3-(cyclohexyloxy)phenyl) cyclopropanesulfonamide]",inhibition at 10 µM,RSK1 domain1; [2],50 to 75%
same,inhibition at 10 µM,RSK1 domain1; read-out: inhibition (10 μM),59.9%
same,inhibition at 10 µM,PIP4K2C; [2],> 90%
same,inhibition at 10 µM,PIP4K2C; read-out: inhibition (10 μM),90.2%
same,inhibition at 10 µM,CaMKK2; [2],75 to 90%
same,inhibition at 10 µM,CaMKK2; read-out: inhibition (10 μM),85.6%
same,inhibition at 10 µM,STLK5; [2],0%
same,inhibition at 10 µM,STLK5; read-out: inhibition (10 μM),-38.6%
same,% inhibition,"Wnk1, Wnk2, Wnk3; 10 μM, range class",0.0%
same,inhibition (10 μM),"Wnk1, Wnk2, Wnk3",−8.3%
same,% inhibition,"FYN, SRC, YES; 10 μM, range class",0.0%
same,inhibition (10 μM),"FYN, SRC, YES",−8.4%
same,inhibition at 10 µM,ZAK; [2],35 to 40%
same,inhibition at 10 µM,ZAK; read-out: inhibition (10 μM),36.2%
same,inhibition at 10 µM,MARK4; [2],0%
same,inhibition at 10 µM,MARK4; read-out: inhibition (10 μM),-1.1%
same,% inhibition,"NEK6, NEK7; 10 μM, range class",0.0%
same,inhibition (10 μM),"NEK6, NEK7",−78.6%
same,inhibition at 10 µM,NEK8; [2],0%
same,inhibition at 10 µM,NEK8; read-out: inhibition (10 μM),-1.7%
same,inhibition at 10 µM,PKCz; [2],0%
same,inhibition at 10 µM,PKCz; read-out: inhibition (10 μM),-12.4%
same,inhibition at 10 µM,CaMK2g; [2],0%
same,inhibition at 10 µM,CaMK2g; read-out: inhibition (10 μM),-12%
same,% inhibition,"[1]; 10 μM, range class",0.0%
same,inhibition (10 μM),[1],12.8%
same,inhibition at 10 µM,IRAK1; [2],0%
same,inhibition at 10 µM,IRAK1; read-out: inhibition (10 μM),27.8%
same,inhibition at 10 µM,MAP2K5; [2],0%
same,inhibition at 10 µM,MAP2K5; read-out: inhibition (10 μM),15%
same,inhibition at 10 µM,PKN1; read-out: inhibition (10 μM),35.9%
same,inhibition at 10 µM,TLK2; [2],0%
same,inhibition at 10 µM,TLK2; read-out: inhibition (10 μM),-3.5%
same,inhibition at 10 µM,CHK1; [2],0%
same,inhibition at 10 µM,CHK1; read-out: inhibition (10 μM),-16%
same,inhibition at 10 µM,PIK3CB; [2],0%
same,inhibition at 10 µM,PIK3CB; read-out: inhibition (10 μM),14.6%
same,inhibition at 10 µM,CDK5; [2],0%
same,inhibition at 10 µM,CDK5; read-out: inhibition (10 μM),4.9%
same,inhibition at 10 µM,p70S6K; [2],0%
same,inhibition at 10 µM,p70S6K; read-out: inhibition (10 μM),11.1%
same,inhibition at 10 µM,PIK3CG; [2],0%
same,inhibition at 10 µM,PIK3CG; read-out: inhibition (10 μM),-64%
same,inhibition at 10 µM,JAK3 domain2; [2],50 to 75%
same,inhibition at 10 µM,JAK3 domain2; read-out: inhibition (10 μM),52.1%
same,inhibition at 10 µM,SRPK2; [2],0%
same,inhibition at 10 µM,SRPK2; read-out: inhibition (10 μM),-29.4%
same,inhibition at 10 µM,LATS1; [2],0%
same,inhibition at 10 µM,LATS1; read-out: inhibition (10 μM),33.8%
same,inhibition at 10 µM,PRPK; [2],0%
same,inhibition at 10 µM,PRPK; read-out: inhibition (10 μM),-55.9%
same,inhibition at 10 µM,MST1; [2],> 90%
same,inhibition at 10 µM,MST1; read-out: inhibition (10 μM),96.7%
same,inhibition at 10 µM,TAO2; [2],0%
same,inhibition at 10 µM,TAO2; read-out: inhibition (10 μM),8.3%
same,inhibition at 10 µM,STLK3; [2],0%
same,inhibition at 10 µM,STLK3; read-out: inhibition (10 μM),31.4%
same,inhibition at 10 µM,ACK; [2],0%
same,inhibition at 10 µM,ACK; read-out: inhibition (10 μM),30.7%
same,inhibition at 10 µM,BARK1; [2],0%
same,inhibition at 10 µM,BARK1; read-out: inhibition (10 μM),3.9%
same,inhibition at 10 µM,GSK3A; [2],75 to 90%
same,inhibition at 10 µM,GSK3A; read-out: inhibition (10 μM),86%
same,inhibition at 10 µM,KHS1; [2],50 to 75%
same,inhibition at 10 µM,KHS1; read-out: inhibition (10 μM),73.3%

# Reference: patent publication US10710978B2, “STK4 inhibitors for treatment of hematologic malignancies” (Dana-Farber Cancer Institute, Inc., priority 2015, dated 2020)
